Results published in ChEMBL document CHEMBL1221174, “Evolution of glutamate interactions during binding to a glutamate receptor” (Nat Chem Biol, 2005).
Calls of active or inactive are those of the source. No cut-off for these calls is given here.

Experiments:
[1] = Binding affinity to Glutamate receptor 2 Y450F mutant S1S2 ligand binding domain assessed as induction protein vibrational state by time resolved FTIR difference spectra method
[2] = Binding affinity to Glutamate receptor 2 E705D mutant S1S2 ligand binding domain assessed as induction protein vibrational state by time resolved FTIR difference spectra method

N[C@@H](CCC(=O)O)C(=O)O
Activity [1]: Active
Activity [2]: Active
